Assay results: paper PMC8343220, “The selectivity of α‐adrenoceptor agonists for the human α1A, α1B, and α1D‐adrenoceptors” (Pharmacology Research & Perspectives, 2021)

Legend:
[1] = target: T1, human α1D‐adrenoceptor (full length) (Homo sapiens, UniProt P25100); assay: Intracellular free calcium mobilization, CHO‐α1D cells; assay type: cell-based; conditions: for Intracellular calcium release Log EC50: CHO‐α1D cells, log values given negative
T1 construct: human α1D‐adrenoceptor (full length) were used; expressed in transfected cells; host or cells: CHO-K1
T1 sequence (P25100 1-572): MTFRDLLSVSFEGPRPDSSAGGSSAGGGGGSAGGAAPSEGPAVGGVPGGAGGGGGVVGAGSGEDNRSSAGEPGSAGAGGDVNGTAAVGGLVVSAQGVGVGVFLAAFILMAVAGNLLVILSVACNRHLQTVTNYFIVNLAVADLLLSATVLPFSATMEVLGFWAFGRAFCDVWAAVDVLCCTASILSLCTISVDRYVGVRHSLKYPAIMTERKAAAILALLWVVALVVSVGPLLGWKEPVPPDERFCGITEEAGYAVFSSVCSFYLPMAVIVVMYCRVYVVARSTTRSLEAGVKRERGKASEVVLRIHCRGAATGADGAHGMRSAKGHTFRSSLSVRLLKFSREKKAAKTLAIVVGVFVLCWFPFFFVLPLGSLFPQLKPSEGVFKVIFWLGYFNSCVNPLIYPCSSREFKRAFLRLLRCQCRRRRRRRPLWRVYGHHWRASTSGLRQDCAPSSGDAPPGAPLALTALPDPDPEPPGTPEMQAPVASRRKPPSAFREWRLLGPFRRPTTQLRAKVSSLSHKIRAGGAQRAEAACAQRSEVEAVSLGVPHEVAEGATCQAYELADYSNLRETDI

[2] = target: T1, human α1D‐adrenoceptor (full length); assay: ERK1/2‐phosphorylation (Surefire Alphascreen), CHO‐α1D cells; assay type: cell-based; conditions: for ERK1/2‐phosphorylation Log EC50: CHO‐α1D cells, log values given negative
human α1B‐adrenoceptor [3] = target: T2, human α1B‐adrenoceptor (Homo sapiens, UniProt P35368); assay: ^3H‐cAMP accumulation in the presence of 10 μM forskolin, CHO‐α1B cells; assay type: cell-based; conditions: CHO‐α1B cells; for cAMP accumulation (in presence of forskolin) Fold increase: fold increase of the forskolin response; for EC50: in presence of forskolin, read-out: cAMP accumulation (in presence of forskolin) Log EC50 (converted)
T2 construct: expressed in transfected cells; host or cells: CHO-K1
T2 sequence (P35368 1-520): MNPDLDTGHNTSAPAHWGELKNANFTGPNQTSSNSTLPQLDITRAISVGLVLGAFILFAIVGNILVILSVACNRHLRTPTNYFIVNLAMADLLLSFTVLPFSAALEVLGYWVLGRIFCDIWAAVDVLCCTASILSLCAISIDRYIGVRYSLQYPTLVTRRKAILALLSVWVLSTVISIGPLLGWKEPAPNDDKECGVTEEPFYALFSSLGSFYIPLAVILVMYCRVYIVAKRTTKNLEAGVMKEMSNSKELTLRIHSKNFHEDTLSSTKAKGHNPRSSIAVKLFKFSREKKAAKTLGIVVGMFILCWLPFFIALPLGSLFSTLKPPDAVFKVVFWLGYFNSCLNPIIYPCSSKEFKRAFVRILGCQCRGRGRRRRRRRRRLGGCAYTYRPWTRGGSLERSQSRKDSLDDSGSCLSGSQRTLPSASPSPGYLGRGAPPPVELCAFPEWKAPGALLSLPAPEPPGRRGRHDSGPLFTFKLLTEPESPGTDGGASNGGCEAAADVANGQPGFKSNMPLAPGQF

human α1A‐adrenoceptor [4] = target: T3, human α1A‐adrenoceptor (Homo sapiens, UniProt P35348); assay: ^3H‐cAMP accumulation in the presence of 10 μM forskolin, CHO‐α1A cells; assay type: cell-based; conditions: CHO‐α1A cells; for EC50: 10 μM forskolin, read-out: cAMP accumulation (in presence of forskolin) Log EC50 (converted); for cAMP accumulation (in presence of forskolin) Fold increase: fold increase of the forskolin response
T3 construct: expressed in transfected cells; host or cells: CHO-K1
T3 sequence (P35348 1-466): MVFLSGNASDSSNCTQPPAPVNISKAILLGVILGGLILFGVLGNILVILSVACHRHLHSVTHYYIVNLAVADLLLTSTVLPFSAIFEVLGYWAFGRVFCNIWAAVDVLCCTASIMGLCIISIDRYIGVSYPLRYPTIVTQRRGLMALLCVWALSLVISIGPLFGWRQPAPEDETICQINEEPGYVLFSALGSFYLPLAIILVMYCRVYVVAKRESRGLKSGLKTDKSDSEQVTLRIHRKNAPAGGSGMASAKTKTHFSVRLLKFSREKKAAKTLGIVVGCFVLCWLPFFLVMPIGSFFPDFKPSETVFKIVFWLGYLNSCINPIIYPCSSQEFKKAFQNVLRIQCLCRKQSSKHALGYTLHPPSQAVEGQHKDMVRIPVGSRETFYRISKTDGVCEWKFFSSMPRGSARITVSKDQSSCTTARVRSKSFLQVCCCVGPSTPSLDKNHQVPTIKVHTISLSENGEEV

human α1B‐adrenoceptor [5] = target: T2, human α1B‐adrenoceptor; assay: ^3H‐cAMP accumulation, CHO‐α1B cells; assay type: cell-based; conditions: CHO‐α1B cells; for cAMP accumulation % forskolin: % forskolin maximum response; for EC50: read-out: cAMP accumulation Log EC50 (converted)
human α1A‐adrenoceptor [6] = target: T3, human α1A‐adrenoceptor; assay: Intracellular free calcium mobilization, CHO‐α1A cells; assay type: cell-based; conditions: for EC50: CHO‐α1A cells, given as log EC50 (negative), read-out: Intracellular calcium release Log EC50 (converted)
human α1A‐adrenoceptor [7] = target: T3, human α1A‐adrenoceptor; assay: ^3H‐prazosin whole‐cell radioligand binding, CHO‐α1A cells; conditions: for Kd: Log KD α1A, ^3H‐prazosin whole cell binding, CHO‐α1A cells, given as log KD (negative), mean ± SEM
human α1A‐adrenoceptor [8] = target: T3, human α1A‐adrenoceptor; assay: ^3H‐cAMP accumulation, CHO‐α1A cells; assay type: cell-based; conditions: CHO‐α1A cells
human α1B‐adrenoceptor [9] = target: T2, human α1B‐adrenoceptor; assay: Intracellular free calcium mobilization, CHO‐α1B cells; assay type: cell-based; conditions: for EC50: CHO‐α1B cells, given as log EC50 (negative numbers), read-out: Intracellular calcium release Log EC50 (converted)
human α1B‐adrenoceptor [10] = target: T2, human α1B‐adrenoceptor; assay: ERK1/2‐phosphorylation (Surefire Alphascreen), CHO‐α1B cells; assay type: cell-based; conditions: for EC50: CHO‐α1B cells, for bi‐phasic responses the initial stimulatory part, read-out: ERK1/2‐phosphorylation Log EC50 (converted)
human α1B‐adrenoceptor [11] = target: T2, human α1B‐adrenoceptor; assay: ^3H‐prazosin whole‐cell radioligand binding, CHO‐α1B cells; conditions: CHO‐α1B cells
[12] = tested on: parental CHO cell line without any transfected receptors; assay: ERK1/2‐phosphorylation, parent CHO cells without transfected receptors; assay type: cell-based, Chinese hamster
[13] = target: T1, human α1D‐adrenoceptor (full length); assay: ^3H‐prazosin whole‐cell radioligand binding, CHO‐α1D cells; conditions: for Kd: CHO‐α1D cells
human α1A‐adrenoceptor [14] = target: T3, human α1A‐adrenoceptor; assay: ERK1/2‐phosphorylation (Surefire Alphascreen), CHO‐α1A cells; assay type: cell-based; conditions: for EC50: CHO‐α1A cells, 2–4 min, ^a bi‐phasic: initial stimulatory part, ^b also active in parent CHO cells, read-out: ERK1/2‐phosphorylation Log EC50 (converted)
[15] = tested on: parental CHO cell line without any transfected receptors; assay: Forskolin‐stimulated cAMP accumulation, parent CHO cells without transfected receptors; assay type: cell-based, Chinese hamster; conditions: CHO cells without transfected receptors; in presence of forskolin
[16] = tested on: parental CHO cell line without any transfected receptors; assay: Intracellular calcium mobilization, parent CHO cells without transfected receptors; assay type: cell-based, Chinese hamster
[17] = Log KD α1B, ^3H‐prazosin whole cell binding, given as log KD (negative), mean ± SEM
[18] = Log KD, ^3H‐prazosin binding, whole‐cell binding (from Table 1), given as log KD (negative numbers)
[19] = 3H‐prazosin binding Log KD, whole‐cell binding (from Table 1), log values given negative
[20] = Log KD α1D, ^3H‐prazosin whole cell binding, given as log KD (negative), mean ± SEM, 'early plateau' = specific binding not fully inhibited

Row | Structure (SMILES) | Intracellular calcium release % ionomycin [1] | Intracellular calcium release Log EC50 [1] | ERK1/2‐phosphorylation % PDBu [2] | ERK1/2‐phosphorylation Log EC50 [2] | cAMP accumulation (in presence of forskolin) Fold increase (human α1B‐adrenoceptor [3]) [fold] | EC50 (human α1B‐adrenoceptor [3]) [µM] | EC50 (human α1A‐adrenoceptor [4]) [µM] | cAMP accumulation (in presence of forskolin) Fold increase (human α1A‐adrenoceptor [4]) [fold] | cAMP accumulation % forskolin (human α1B‐adrenoceptor [5]) [%] | EC50 (human α1B‐adrenoceptor [5]) [µM] | Intracellular calcium release % ionomycin (human α1A‐adrenoceptor [6]) [%] | Log efficacy ratio KD /EC50 (human α1A‐adrenoceptor [6]) | EC50 (human α1A‐adrenoceptor [6]) [µM] | Affinity selectivity ratio α1A vs α1B (human α1A‐adrenoceptor [7]) [fold] | Affinity selectivity ratio α1A vs α1D (human α1A‐adrenoceptor [7]) [fold] | Kd (human α1A‐adrenoceptor [7]) [µM] | Intracellular calcium release % ionomycin (human α1B‐adrenoceptor [9]) [%] | Log efficacy ratio KD /EC50 (human α1B‐adrenoceptor [9]) | EC50 (human α1B‐adrenoceptor [9]) [µM] | ERK1/2‐phosphorylation % PDBu (human α1B‐adrenoceptor [10]) [%] | other results
1 | Brc1c(NC2=NCCN2)ccc2nccnc12 [UK14304] | No response | No response | No response | No response | 1.50 ± 0.05 | 0.0977 | 1.38 | 1.95 ± 0.09 | 2.7 ± 0.1 | 0.0955 | 45.6 ± 1.6 | 1.64 | 0.0676 | 4.4 | 1.5 | 2.95 | 27.5 ± 1.8 | 2.26 | 0.0708 | 33.8 ± 5.0 | cAMP accumulation % forskolin at 10 μM (human α1A‐adrenoceptor [8]; response at 10 μM ligand, no EC50 obtained): 12.0 ± 1.1%; EC50 (human α1B‐adrenoceptor [10]): 0.316 µM; Kd (human α1B‐adrenoceptor [11]; [17]): 12.9 µM; Kd (human α1B‐adrenoceptor [11]; [18]): 12.9 µM; ERK1/2-phosphorylation % PDBu ([12]; CHO cells without transfected receptors, maximal response as % of PDBu (10μM) response, mean ± s.e.m.): No response; ERK1/2-phosphorylation Log EC50 ([12]; CHO cells without transfected receptors, mean ± s.e.m.): No response; Affinity selectivity ratio α1B vs α1D [13]: 3.0 fold; Kd [13, 19]: 4.37 µM; Kd [13, 20]: 4.37 µM; ERK1/2‐phosphorylation % PDBu (human α1A‐adrenoceptor [14]): 88.7 ± 4.3%; EC50 (human α1A‐adrenoceptor [14]): 0.186 µM; cAMP accumulation (in presence of forskolin) Log EC50 [15]: No response
2 | C[C@H](CCC(=O)O)C[C@H](C)C[C@H](C)C(=O)/C=C(\O)[C@H](C)C[C@H](C)C/C=C/[C@@H](C)[C@@H](O)[C@@H](C)[C@@H](O)C[C@@H]1CC[C@@](C)([C@H]2CC[C@@](C)([C@@H](C)O)O2)O1 [Ionomycin] |  |  |  |  |  |  |  |  |  |  |  |  |  |  |  |  |  |  |  |  | Calcium response fold over basal [16]: 27.2 ± 1.2 fold over basal
3 | Brc1c(NC2=NCCN2)ccc2nccnc12 [Brimonidine] | No response | No response | No response | No response | 1.58 ± 0.07 | 0.105 | 1.58 | 1.96 ± 0.05 | 4.5 ± 1.6 | 0.129 | 47.8 ± 4.1 | 1.57 | 0.117 | 4.8 | 1.2 | 4.37 | 35.8 ± 2.4 | 2.33 | 0.0977 | 41.2 ± 6.2 | EC50 (human α1A‐adrenoceptor [8]; 5 h, read-out: cAMP accumulation Log EC50 (converted)): 5.75 µM; cAMP accumulation % forskolin (human α1A‐adrenoceptor [8]; % of 10 µM forskolin response): 17.8 ± 1.7%; EC50 (human α1B‐adrenoceptor [10]): 0.724 µM; Kd (human α1B‐adrenoceptor [11]; [17]): 20.9 µM; Kd (human α1B‐adrenoceptor [11]; [18]): 20.9 µM; Emax at 100 µM ([12]; Cricetulus griseus, CHO, read-out: ERK1/2-phosphorylation % PDBu at 100μM): 2.3 ± 1.7%; Affinity selectivity ratio α1B vs α1D [13]: 3.9 fold; Kd [13, 19]: 5.37 µM; Kd [13, 20]: 5.37 µM; ERK1/2‐phosphorylation % PDBu (human α1A‐adrenoceptor [14]): 86.4 ± 3.6%; EC50 (human α1A‐adrenoceptor [14]): 0.363 µM; cAMP accumulation (in presence of forskolin) Log EC50 [15]: No response
